Experimental data taken from patent US7648966B2, “Mannose-6-phosphonate compounds for the treatment of inflammatory diseases” (Pharmaxis Pty Limited, priority 2003, dated 2010).

Key:
[1] = tested on: picryl chloride-sensitized T lymphocyte migration into the right ear pinna; assay: Inhibition of T lymphocyte migration into extralymphatic tissue (picryl chloride-painted ear pinna) in vivo; design: species or system Balb/c mice; settings: 5 mg/mouse IV; 9-10 hours after cell infusion
From the text: The foregoing methods are recognized and well understood by those skilled in the art and the underlying principles can be found in any immunology textbook such as those cited above. Here donor animals are sensitized to a self protein (in practice, skin is the easiest tissue to use) by chemically modifying the protein(s) in this tissue thereby allowing the chemical moiety to be ‘seen’ as ‘foreign’ tissue by the immune system. This is done by reacting the skin (“painting”) with a ‘hapten’ which is usually an alkylating or arylating agent that reacts covalently with and thereby modifies protein(s) in the skin. Seven to ten days following sensitization, spleens or draining LNs are taken from the donor animals. […] Within a short time of cell transfer sensitized T cells begin to accumulate in the hapten-modified tissue, 8-24 hours later the tissue can be removed and the cell accumulation assessed. In the case of fluorescently-labeled cells, their accumulation is assessed histologically or histochemically, and in the case of radiolabeled cells, accumulation is assessed by counting radioactive decay in a suitable device. […]
B lymphocytes were depleted as described in Example 3. The enriched lymphocyte population contained approximately 85-90% T lymphocytes and <1% B cells (determined by FACS analysis). […]

[2] = tested on: passively transferred adjuvant-induced arthritis; assay: Passively transferred adjuvant arthritis; type: in vivo, DA rats; settings: for swelling in the affected joints at the end of the treatment period: controls severe swelling
Method: The experiment in this Example was designed to study the effect of the agents of the present invention in vivo on a disease that requires T lymphocyte migration into a specific tissue (synovium). Male DA rats, 8 to 10 week old, were immunized with three 100 μl injections of CFA intradermally at the base of the tail. The CFA was prepared by mixing 8 mg/ml of M. butyricum (Difco Laboratories, USA) that had been ground to a fine powder using a mortar and pestle, in 85% light mineral oil (Sigma, USA) and 15% mannide monooleate (Sigma) and emulsifying this suspension, one part in one part saline. Thus, the final emulsion contained 4 mg/ml of M. butyricum. Ten days after immunization, the rats were euthanized and their spleens removed aseptically. A single cell suspension in lymphocyte culture medium with 10% FCS was prepared as described above and adjusted to a concentration of 2×10^6 cells/ml. Con A was added at a final concentration of 2 μg/ml. The cells were cultured at 37° C. in an atmosphere of 5% carbon dioxide for 72 hours. Groups of 4 or 5 DA rats, 6 to 8 weeks of age were anesthetized with diethyl ether and implanted sc on the flank with Alzet 2002 (“2 week delivery”) or Alzet 2001 (“1 week delivery”) mini-osmotic pumps (Alza Corp., Palo Alto Calif., USA). One treatment group received 1-(2,4,-diimethyl phenyl)-6-phosphono-mannoside in the one week delivery Alzet 2001 mini-osmotic pumps. The drug was delivered at a dose of 25 mg/kg/day. The control group for this experiment received identical mini-osmotic pumps containing normal saline. In a second experiment another group of DA rats received 1-(2,4,-diimethyl phenyl)-6-phosphono-mannoside in the “2 week delivery” Alzet 2002 mini-osmotic pumps. This drug was delivered at a dose of 37 mg/kg/day. Control animals for this group received saline delivered in identical mini-osmotic pumps. While the animals were recovering from anesthesia, the above cultured lymphocytes which had been harvested and washed twice in HBSS were resuspended in normal saline and injected iv (lateral tai vein) into recipient rats, each of which received 75-90×10^6 cells in 0.5 ml. After 5 to 8 days, a characteristic thickening and cutaneous hyperemia of the distal joints of the hind legs became clinically apparent in saline treated control animals. Disease severity was evaluated and graded in each group by daily measurement of the mediolateral widths of both ankle joints. The data were expressed as the mean of the change (compared with width prior to cell injection) in mediolateral ankle width expressed in millimeters (±standard error of the mean).

With `Cc1ccc(O[C@H]2O[C@H](CCP(=O)(O)O)[C@@H](O)[C@H](O)[C@@H]2O)c(C)c1` the “Percent inhibition of T cell migration (right ear pinna)” value [1] was 56.1%, the “difference in disease status of treated versus control animals” value ([2]; 25 mg/kg/day, end of one week treatment) was “highly statistically significant difference” and the “swelling in the affected joints at the end of the treatment period” value ([2]; 25 mg/kg/day, one week delivery Alzet 2001 pump) was “little swelling”. The “difference in disease status of treated versus control animals” value ([2]; 37 mg/kg/day, end of two week treatment) was “highly statistically significant difference” and the “swelling in the affected joints at the end of the treatment period” value ([2]; 37 mg/kg/day, two week delivery Alzet 2002 pump) was “little swelling”.
